{"source": "patent US11001892B2", "about": "“Methods of diagnosing endometriosis” (The Regents of the University of California, priority 2007, dated 2021)", "key": {"[1]": {"test_system": "endometrial stromal fibroblasts (ESFs)", "assay": "Regulation of steroidogenic enzymes in ESFs by cAMP and/or E2/P4, Q-PCR", "type": "cell-based, human", "protocol": "ESFs were isolated from endometrial biopsies from 15 women with and 7 women without endometriosis. […] IGFBP1 and PRL protein secretion was measured by ELISA. […] Purity of ESF populations at passage 2 was evaluated by immunohistochemistry using cytokeratin, vimentin and CD45 antibodies. Endometrial tissue biopsies were obtained from mid-secretory phase endometrium from 5 women without and 5 women with severe endometriosis."}, "[2]": {"test_system": "ERK", "assay": "ERK 1/2 phosphorylation in cultured eutopic endometrial stromal cells", "type": "cell-based, human", "details": "eutopic endometrial stromal cells from patients with endometriosis; treatment within 60 min; level then similar to cells from patients without endometriosis", "text": "Growth of ectopic endometrial tissues in the pelvic cavity, which is a hallmark of endometriosis, is associated with elevated levels of inflammatory cytokines and increased number of activated macrophages in the peritoneal environment. […] In this example, the expression of inflammatory-associated genes in cultured eutopic endometrial stromal cells from women with versus without endometriosis was examined using quantitative RT-PCR. […] Interleukin-1 beta and cyclooxygenase-2 mRNA expression were similar in cultured endometrial stromal cells from women with vs. without endometriosis. Cell proliferation was similar in eutopic endometrial stromal cells from women with versus without endometriosis when cultured in 0%, 2%, or 10% charcoal stripped FBS-containing medium or in the presence of insulin. Increased IL-8 production in endometriosis is accompanied by a strong increased phosphorylation of ERK ½ (P=0.04), a signaling molecule shown to activate IL-8 expression in endometrial stromal cells. […] Since phosphorylation of ERK and IL-8 expression increases cell migration and invasion of endometrial stromal cells, dysregulation of MAPK activity and IL-8 expression in the eutopic endometrial stromal cells of women with endometriosis may be associated with the pathophysiology and spread of the disease."}, "[3]": {"test_system": "pro-MMP-3 or pro-MMP-7 secretion", "details": "in vitro treatment of endometrial tissues from women with endometriosis; cited from earlier work"}, "[4]": {"test_system": "eutopic endometrium of women with endometriosis", "details": "cited from earlier work"}, "[5]": {"test_system": "TOB1", "details": "cultured human endometrial stromal cells from women with endometriosis; cited from earlier work"}}}
{"compound": "CC(=O)[C@H]1CC[C@H]2[C@@H]3CCC4=CC(=O)CC[C@]4(C)[C@H]3CC[C@]12C", "note": "[P4, progesterone]", "values": [{"measurement": "Cyp17A1 (P450c17) expression", "setting": "[1]; ESFs from women with vs without endometriosis", "result": "slightly down-regulated"}, {"measurement": "Aromatase (Cyp19A1) regulation", "setting": "[1]; ESFs, cAMP effect in women with endometriosis", "result": "not regulated"}, {"measurement": "3βHSD1 expression", "setting": "[1]; P4 stimulated ESFs from women with endometriosis", "result": "Down regulation"}, {"measurement": "high basal ERK phosphorylation", "setting": "[2]", "result": "successfully diminished"}, {"measurement": "suppression of pro-MMP-3 or pro-MMP-7 secretion", "setting": "[3]", "result": "fails to fully suppress"}, {"measurement": "prevention of the ability of tissues to establish experimental disease in mice", "setting": "[4]; endometrial tissues from women with endometriosis treated in vitro", "result": "fails to prevent"}]}
{"compound": "Cn1c(C#N)ccc1-c1ccc2c(c1)C(C)(C)OC(=S)N2", "note": "[tanaproget]", "values": [{"measurement": "progesterone insensitivity of eutopic endometrium of women with endometriosis", "setting": "[4]; endometrial cell culture and nude mouse models", "result": "could be corrected"}]}
{"compound": "IL-1β: a central cytokine in endometriosis", "values": [{"measurement": "TOB1 expression", "setting": "[5]", "result": "reduced TOB1 expression"}]}
